Measured values taken from patent US20240335442A1 (Eurofarma Laboratórios S.A., priority 2021, published 2024).

Key:
[1] = biological target: human sodium channel Nav 1.8 (Homo sapiens (Human), UniProt Q9Y5Y9); assay: Automated whole-cell voltage-clamp (ScreenPatch 384P), Nav 1.8 sodium current, Protocol 2; format: cell-based; conditions: read-out: Nav1.8 IC50
Protocol: (§1) Biological assays were performed on Chinese hamster ovary (CHO) cells expressing the human sodium channels Nav 1.8 and Nav 1.7 stably.
(§2) The experimental voltage-clamp protocol using the whole cell configuration was established on the automated ScreenPatch® 384P platform (SP384PE, Nanion Technologies, Livingston, NJ) and recording of the results was performed with a Nanion 384-well Patch Clamp chip (NPC) (Nanion Technologies, Livingston, NJ).
(§3) Compounds of Formula (I), were diluted in eight concentrations in the extracellular solution composed of physiological saline, buffered with HEPES (mM): NaCl, 137; KCl, 4; CaCl2, 3.8; MgCl2, 1; HEPES, 10; Glucose, 10; pH 7.4. The […], 50; CsF, 90; MgCl2, 5; EGTA, 5; HEPES, 10; pH 7.2. The duration of exposure of each compound with the cells expressing Nav 1.7 or Nav 1.8 was at least five minutes and the assays were performed at room temperature.
(§4) The measurements of the sodium currents of Nav 1.8 and Nav 1.7 were obtained using the voltage protocols described below: • Protocol 1: A holding voltage of-90 mV was established followed by a voltage phase of 200 ms to-120 mV, followed by a voltage step of 10 mV for 1 second for Nav 1.8 or 0 mV for Nav 1.7, followed by a step of-100 mV for 20 ms, followed by a step of 20 ms for 10 mV for Nav 1.8 or 0 mV for Nav 1.7 (TP1A) before returning to the holding voltage of-90 mV. • Protocol 2: A holding voltage of-100 mV was established followed by an inactivation voltage step at −40 mV for 8 seconds, followed by a −100 mV step for 20 ms, followed by a 20 ms step for 10 mV for Nav 1.8 or 0 mV for Nav 1.7 (TP1A) before returning to the holding voltage of-100 mV.
(§5) Protocols were repeated at a frequency of 0.1 Hz (Protocol 1) or 0.05 Hz (Protocol 2) and current amplitude was quantified over the TP1A phase log. The variation in the peak amplitude of the current was evaluated according to the Formula described below, after exposure of the cells expressing the channels, at each concentration of the different compounds:
(§6) where ITP1A,basal, and ITP1A,molecule represent the entry peaks of sodium currents into TP1A prior to exposure to the compound and in the presence of the compound, respectively.
(§7) The decrease in peak current amplitude, after exposure of the cells to the compounds, was used to calculate the percent relative blocking of the channels relative to the positive control according to the Formula below: […]
(§8) where % V and % CP represent the averages of the values of current inhibition with a vehicle (DMSO) and positive controls, respectively. The sodium currents of the positive control were considered as 100%.
(§9) where [Test] represents the concentration of the evaluated molecule, IC50 is the concentration of the compound that generates half of the maximum inhibition, N is the Hill's coefficient and % Block′ is the percentage of the sodium channel current (Nav 1.8 and Nav 1.7) inhibited at each concentration of the evaluated molecule. Data were obtained by non linear least squares regression with XL fit for Excel (Microsoft, Redmond, WA).
(§10) Compounds were tested in at least one assay to obtain the IC50 value.

[2] = biological target: human sodium channel Nav 1.7 (Homo sapiens (Human), UniProt Q15858); assay: Automated whole-cell voltage-clamp (ScreenPatch 384P), Nav 1.7 sodium current, Protocol 2; format: cell-based; conditions: read-out: Nav1.7 IC50
Protocol: as §1, §2, §3, §4, §5, §6, §7, §8, §9, §10

Sequence of human sodium channel Nav 1.7 (Q15858 whole entry): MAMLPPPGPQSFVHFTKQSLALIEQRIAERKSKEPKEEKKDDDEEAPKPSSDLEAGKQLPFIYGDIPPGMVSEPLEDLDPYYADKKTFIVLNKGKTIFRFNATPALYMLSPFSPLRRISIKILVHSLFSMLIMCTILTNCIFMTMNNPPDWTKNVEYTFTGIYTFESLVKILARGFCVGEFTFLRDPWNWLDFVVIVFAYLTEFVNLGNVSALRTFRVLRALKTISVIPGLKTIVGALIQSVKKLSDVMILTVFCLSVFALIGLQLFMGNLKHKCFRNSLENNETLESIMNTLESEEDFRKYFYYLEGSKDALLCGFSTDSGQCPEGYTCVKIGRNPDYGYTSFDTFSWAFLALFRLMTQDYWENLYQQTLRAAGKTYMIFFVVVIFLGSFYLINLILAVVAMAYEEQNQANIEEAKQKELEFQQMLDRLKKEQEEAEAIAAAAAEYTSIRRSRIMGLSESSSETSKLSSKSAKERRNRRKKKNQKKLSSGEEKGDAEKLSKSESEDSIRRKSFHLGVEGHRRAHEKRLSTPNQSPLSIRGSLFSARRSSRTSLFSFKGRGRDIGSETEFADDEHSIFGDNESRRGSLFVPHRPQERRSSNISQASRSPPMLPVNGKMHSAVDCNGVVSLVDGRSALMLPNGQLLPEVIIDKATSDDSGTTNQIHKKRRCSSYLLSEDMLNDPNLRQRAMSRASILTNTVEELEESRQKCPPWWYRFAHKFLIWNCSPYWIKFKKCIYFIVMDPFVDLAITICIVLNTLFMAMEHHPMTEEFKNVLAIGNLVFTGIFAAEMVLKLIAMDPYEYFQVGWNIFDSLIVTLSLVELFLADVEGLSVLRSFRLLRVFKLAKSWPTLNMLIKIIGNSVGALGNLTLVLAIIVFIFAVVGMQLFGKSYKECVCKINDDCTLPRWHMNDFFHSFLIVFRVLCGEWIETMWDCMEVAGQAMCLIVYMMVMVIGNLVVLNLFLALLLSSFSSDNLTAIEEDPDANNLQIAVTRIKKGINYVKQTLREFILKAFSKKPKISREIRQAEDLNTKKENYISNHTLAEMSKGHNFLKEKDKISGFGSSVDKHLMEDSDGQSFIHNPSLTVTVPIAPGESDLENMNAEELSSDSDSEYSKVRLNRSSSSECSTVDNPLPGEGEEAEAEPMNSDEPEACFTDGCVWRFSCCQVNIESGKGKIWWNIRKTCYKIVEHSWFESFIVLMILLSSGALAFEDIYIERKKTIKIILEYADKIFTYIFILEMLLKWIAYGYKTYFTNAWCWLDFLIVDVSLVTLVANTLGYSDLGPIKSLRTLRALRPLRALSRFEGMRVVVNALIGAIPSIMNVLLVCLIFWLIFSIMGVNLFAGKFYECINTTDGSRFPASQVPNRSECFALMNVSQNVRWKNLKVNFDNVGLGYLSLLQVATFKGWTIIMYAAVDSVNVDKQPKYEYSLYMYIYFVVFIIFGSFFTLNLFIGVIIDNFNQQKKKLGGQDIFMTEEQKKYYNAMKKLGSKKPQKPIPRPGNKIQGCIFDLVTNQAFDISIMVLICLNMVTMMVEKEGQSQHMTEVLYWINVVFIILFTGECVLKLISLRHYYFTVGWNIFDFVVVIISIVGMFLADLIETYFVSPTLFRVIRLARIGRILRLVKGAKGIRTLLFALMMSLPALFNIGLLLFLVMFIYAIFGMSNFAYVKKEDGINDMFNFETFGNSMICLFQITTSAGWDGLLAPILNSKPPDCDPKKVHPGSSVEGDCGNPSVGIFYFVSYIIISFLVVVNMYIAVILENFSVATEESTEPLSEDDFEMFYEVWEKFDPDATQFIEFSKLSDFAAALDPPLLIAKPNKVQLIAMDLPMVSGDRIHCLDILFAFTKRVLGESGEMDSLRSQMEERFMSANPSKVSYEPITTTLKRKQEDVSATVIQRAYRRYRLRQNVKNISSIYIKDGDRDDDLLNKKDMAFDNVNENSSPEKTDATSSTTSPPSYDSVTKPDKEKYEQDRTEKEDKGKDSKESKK
Sequence of human sodium channel Nav 1.8 (Q9Y5Y9 whole entry): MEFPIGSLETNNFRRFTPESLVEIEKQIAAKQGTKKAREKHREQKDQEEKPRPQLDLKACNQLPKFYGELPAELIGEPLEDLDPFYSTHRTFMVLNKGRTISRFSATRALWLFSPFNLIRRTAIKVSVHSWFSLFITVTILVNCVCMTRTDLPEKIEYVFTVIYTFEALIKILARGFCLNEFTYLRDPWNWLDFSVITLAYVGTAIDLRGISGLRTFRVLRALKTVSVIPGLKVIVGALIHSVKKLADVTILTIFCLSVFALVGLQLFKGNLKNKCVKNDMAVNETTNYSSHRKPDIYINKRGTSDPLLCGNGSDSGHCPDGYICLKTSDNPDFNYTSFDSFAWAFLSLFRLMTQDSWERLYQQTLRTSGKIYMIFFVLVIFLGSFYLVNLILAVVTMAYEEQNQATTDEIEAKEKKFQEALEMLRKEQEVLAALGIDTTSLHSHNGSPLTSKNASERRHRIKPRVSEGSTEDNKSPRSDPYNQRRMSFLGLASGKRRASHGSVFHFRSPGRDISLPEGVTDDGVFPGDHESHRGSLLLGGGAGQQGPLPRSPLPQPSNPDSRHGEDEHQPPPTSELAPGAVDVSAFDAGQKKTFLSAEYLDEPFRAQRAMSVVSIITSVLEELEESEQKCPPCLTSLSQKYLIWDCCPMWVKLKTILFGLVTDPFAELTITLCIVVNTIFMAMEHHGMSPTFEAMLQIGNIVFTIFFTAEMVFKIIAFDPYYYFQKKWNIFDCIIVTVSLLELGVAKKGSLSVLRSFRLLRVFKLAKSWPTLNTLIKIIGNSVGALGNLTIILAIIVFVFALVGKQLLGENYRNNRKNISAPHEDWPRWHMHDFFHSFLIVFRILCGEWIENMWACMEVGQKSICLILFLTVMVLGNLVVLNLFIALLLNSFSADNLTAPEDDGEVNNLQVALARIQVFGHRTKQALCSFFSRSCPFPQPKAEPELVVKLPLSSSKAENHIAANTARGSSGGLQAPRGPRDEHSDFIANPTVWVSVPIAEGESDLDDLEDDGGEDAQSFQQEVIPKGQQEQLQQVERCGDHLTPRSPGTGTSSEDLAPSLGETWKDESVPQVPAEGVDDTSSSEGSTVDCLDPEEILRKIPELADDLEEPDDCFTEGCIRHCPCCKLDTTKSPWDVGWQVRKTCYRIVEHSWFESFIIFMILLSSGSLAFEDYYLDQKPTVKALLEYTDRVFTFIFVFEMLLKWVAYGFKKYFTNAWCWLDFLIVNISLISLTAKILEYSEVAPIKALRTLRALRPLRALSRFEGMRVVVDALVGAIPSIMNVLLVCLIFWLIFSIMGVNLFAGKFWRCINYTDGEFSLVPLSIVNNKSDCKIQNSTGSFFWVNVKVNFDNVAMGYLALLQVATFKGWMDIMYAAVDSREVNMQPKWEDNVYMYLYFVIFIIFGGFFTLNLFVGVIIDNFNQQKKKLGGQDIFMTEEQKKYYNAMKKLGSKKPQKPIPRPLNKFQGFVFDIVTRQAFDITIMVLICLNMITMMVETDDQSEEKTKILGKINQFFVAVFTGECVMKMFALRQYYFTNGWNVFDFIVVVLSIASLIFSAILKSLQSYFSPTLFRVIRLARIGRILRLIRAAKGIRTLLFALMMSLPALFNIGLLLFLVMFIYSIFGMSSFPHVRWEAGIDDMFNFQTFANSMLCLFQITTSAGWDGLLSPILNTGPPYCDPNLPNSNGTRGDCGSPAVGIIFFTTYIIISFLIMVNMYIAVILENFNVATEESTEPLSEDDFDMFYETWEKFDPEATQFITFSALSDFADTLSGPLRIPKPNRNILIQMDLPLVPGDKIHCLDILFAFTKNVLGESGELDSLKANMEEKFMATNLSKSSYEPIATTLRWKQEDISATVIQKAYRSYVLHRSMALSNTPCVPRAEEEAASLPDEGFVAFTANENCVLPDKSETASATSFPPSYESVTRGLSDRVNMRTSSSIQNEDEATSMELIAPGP

Row | IC50 [1] [nM] | IC50 [2] [nM] | SMILES
1 | 492 | 1850 | COc1ccc(-c2cncc(C(=O)N/N=C/c3cccc(C(C)(C)C)c3)n2)cc1 [Compound 59, (E)-N′-(3-(tert-butyl)benzylidene)-6-(4-methoxyphenyl)pyrazine-2-carbohydrazide]
2 | 82 | 1420 | COc1ccc(-c2cncc(C(=O)N/N=C/c3ccccc3Cl)n2)cc1 [Compound 47, (E)-N′-(2-chlorobenzylidene)-6-(4-methoxyphenyl)pyrazine-2-carbohydrazide]
3 | 93 | 107 | CC1=C(/C=N/NC(=O)c2cncc(-c3ccc(OC(C)C)cc3)n2)CCCCC1 [Compound 202, (E)-6-(4-isopropoxyphenyl)-N′-((2-methylcyclohept-1-en-1-yl)methylene)pyrazine-2-carbohydrazide]
4 | > 1000 | > 10000 | CCOc1ccc(-c2cncc(C(=O)N/N=C/c3ccccc3)n2)cc1 [Compound 170, (E)-N′-benzylidene-6-(4-ethoxyphenyl)pyrazine-2-carbohydrazide]
5 | 79.9 | 416 | CCSc1ccc(-c2cncc(C(=O)N/N=C/c3cc(OC)cc(OC)c3)n2)cc1 [Compound 118, (E)-N′-(3,5-dimethoxybenzylidene)-6-(4-(ethylthio)phenyl)pyrazine-2-carbohydrazide]
6 | > 1000 | > 10000 | CCc1nccnc1C(=O)N/N=C/c1cc(OC)cc(OC)c1 [Compound 132, (E)-N′-(3,5-dimethoxybenzylidene)-3-ethylpyrazine-2-carbohydrazide]
7 | 103 | 135 | CCCCOc1ccc(-c2cncc(C(=O)N/N=C/c3cc(OC)cc(OC)c3)n2)cc1 [Compound 83]
8 | 629 | > 10000 | COc1ccc(-c2cncc(C(=O)N/N=C/C3CCCCC3)n2)cc1 [Compound 173, (E)-N′-(cyclohexylmethylene)-6-(4-methoxyphenyl)pyrazine-2-carbohydrazide]
9 | > 1000 | > 10000 | COc1cc(/C=N/NC(=O)c2cncc(N3CCC(F)(F)CC3)n2)cc(OC)c1 [Compound 180, (E)-6-(4,4-difluoropiperidin-1-yl)-N′-(3,5-dimethoxybenzylidene)pyrazine-2-carbohyrazide]
10 | > 1000 | > 10000 | COc1cc(/C=N/NC(=O)c2cncc(-c3ccc(OCCN(C)C)cc3)n2)cc(OC)c1 [Compound 151, (E)-N′-(3,5-dimethoxybenzylidene)-6-(4-(2-(dimethylamino)ethoxy)phenyl)pyrazine-2-carbohydrazide]
11 | 17.7 | 30.8 | CCOc1ccc(-c2cncc(C(=O)N/N=C/c3cccc(OC)c3)n2)c(OC)c1 [Compound 108, (E)-6-(4-ethoxy-2-methoxyphenyl)-N′-(3-methoxybenzylidene)pyrazine-2-carbohydrazide]
12 | > 1000 | > 10000 | COc1cc(/C=N/NC(=O)c2cncc(-c3ccccc3N3CCOCC3)n2)cc(OC)c1 [Compound 114]
13 | 73.9 | 210 | CCCOc1ccc(-c2cncc(C(=O)N/N=C/c3cc(OC)cc(OC)c3)n2)cc1 [Compound 32, N′-[(E)-(3,5-dimethoxyphenyl)methylidene]-6-(4-propoxyphenyl)pyrazine-2-carbohydrazide]
14 | 115 | 1570 | COc1ccc(-c2cncc(C(=O)N/N=C/c3cccc(OC)c3)n2)cc1 [Compound 37, (E)-N′-(3-methoxybenzylidene)-6-(4-methoxyphenyl)pyrazine-2-carbohydrazide]
15 | > 1000 | > 10000 | COc1cc(/C=N/NC(=O)c2cncc(-c3ccccc3OC3CCCC3)n2)cc(OC)c1 [Compound 161, (E)-6-(2-(cyclopentyloxy)phenyl)-N′-(3,5-dimethoxybenzylidene)pyrazine-2-carbohydrazide]
16 | > 1000 | > 10000 | CCOc1ccc(-c2cncc(C(=O)N/N=C/C3CCCCC3)n2)cc1 [Compound 171, (E)-N′-(cyclohexylmethylene)-6-(4-ethoxyphenyl)pyrazine-2-carbohydrazide]
17 | 573 | > 10000 | CCOc1ccc(-c2cncc(C(=O)N/N=C/C3CCC(F)(F)CC3)n2)cc1 [Compound 172, (E)-N′-((4,4-diflurocyclohexyl)methylene)-6-(4-ethoxyphenyl)pyrazine-2-carbohydrazide]
18 | > 1000 | > 10000 | COc1ccc(-c2cncc(C(=O)N/N=C/c3cc(C(C)(C)C)cc(C(C)(C)C)c3)n2)cc1 [Compound 76, (E)-N′-(3,5-di-tert-butylbenzylidene)-6-(4-methoxyphenyl)pyrazine-2-carbohydrazide]
19 | 94.5 | 3290 | COc1ccc(-c2cncc(C(=O)N/N=C/c3cccc(OC(C)C)c3)n2)cc1 [Compound 41, (E)-N′-(3-isopropoxybenzylidene)-6-(4-methoxyphenyl)pyrazine-2-carbohydrazide]
20 | 777 | > 10000 | COc1ccc(-c2cncc(C(=O)N/N=C/c3cc(C(F)(F)F)cc(C(F)(F)F)c3)n2)cc1 [Compound 73, (E)-N′-(3,5-bis(trifluoromethyl)benzylidene)-6-(4-methoxyphenyl)pyrazine-2-carbohydrazide]
21 | 93.5 | 575 | CCOc1ccc(-c2cncc(C(=O)N/N=C/c3cccc(OC)c3Cl)n2)cc1 [Compound 19, (E)-N′-(2-chloro-3-methoxybenzylidene)-6-(4-ethoxyphenyl)pyrazine-2-carbohydrazide]
22 | 97 | 1050 | COc1ccc(-c2cncc(C(=O)N/N=C/c3cccc(C)c3)n2)cc1 [Compound 58, (E)-6-(4-methoxyphenyl)-N′-(3-methylbenzylidene)pyrazine-2-carbohydrazide]
23 | > 1000 | > 10000 | COc1cc(/C=N/NC(=O)c2cncc(N3CCCCC3)n2)cc(OC)c1 [Compound 127, (E)-N′-(3,5-dimethoxybenzylidene)-6-(piperidin-1-yl)pyrazine-2-carbohydrazide]
24 | 132 | > 10000 | COc1cc(/C=N/NC(=O)c2cncc(-c3ccc(OC(F)(F)F)cc3)n2)cc(OC)c1 [Compound 31, N′-[(E)-(3,5-dimethoxyphenyl)methylidene]-6-[4-(trifluoromethoxy)phenyl]pyrazine-2-carbohydrazide]
25 | 233 | 798 | COc1ccc(-c2cncc(C(=O)N/N=C/c3ccccc3Br)n2)cc1 [Compound 48, (E)-N′-(2-bromobenzylidene)-6-(4-methoxyphenyl)pyrazine-2-carbohydrazide]
26 | > 1000 | > 10000 | COc1cc(/C=N/NC(=O)c2cncc(-c3ccc(F)cc3)n2)cc(OC)c1 [Compound 92, (E)-N′-(3,5-dimethoxybenzylidene)-6-(4-fluorophenyl)pyrazine-2-carbohydrazide]
27 | 42.6 | 70.4 | COc1cc(/C=N/NC(=O)c2cncc(-c3ccc(OC4CC4)cc3)n2)cc(OC)c1 [Compound 88, (E)-6-(4-cyclopropoxyphenyl)-N′-(3,5-dimethoxybenzylidene)pyrazine-2-carbohydrazide]
28 | > 1000 | > 10000 | COc1cc(/C=N/NC(=O)c2cnc(C(C)C)cn2)cc(OC)c1 [Compound 136, (E)-N′-(3,5-dimethoxybenzylidene)-5-isopropylpyrazine-2-carbohydrazide]
29 | 178 | 1990 | COc1ccc(-c2cncc(C(=O)N/N=C/c3ccccc3F)n2)cc1 [Compound 46, (E)-N′-(2-fluorobenzylidene)-6-(4-methoxyphenyl)pyrazine-2-carbohydrazide]
30 | > 1000 | > 10000 | COc1cc(/C=N/NC(=O)c2cncc(N3CCOCC3)n2)cc(OC)c1 [Compound 126, (E)-N′-(3,5-dimethoxybenzylidene)-6-morpholinopyrazine-2-carbohydrazide]
